The source made the active and inactive calls. No cut-off for these calls is given here.
What was measured:
Pancreatic islet [1] = assay: Induction of insulin secretion in human pancreatic islets at 15 mM in presence of glucose; format: functional, cell-based
[2] = molecular target: cAMP and cAMP-inhibited cGMP 3',5'-cyclic phosphodiesterase 10A (Homo sapiens, UniProt Q9Y233); assay: Inhibition of human recombinant full length PDE10A expressed in sf9 cells by scintillation proximity assay
[3] = Ratio of drug level in brain to plasma (unknown origin) after 2 hrs; format: ADME; details: brain and plasma; read-out: BPR
Pancreatic islet [4] = assay: Induction of insulin secretion in human pancreatic islets at 2 to 12 mM; format: functional, cell-based
[5] = Cmax in rat at 10 mg/kg; format: ADME, organism-based; set-up: dose 10 mg/kg; details: in vivo
[6] = Stability in cynomolgus monkey liver microsomes; format: ADME, Macaca fascicularis, Microsome
[7] = Oral bioavailability in rat at 10 mg/kg; format: ADME, organism-based; details: in vivo
[8] = molecular target: cGMP-inhibited 3',5'-cyclic phosphodiesterase 3B (Homo sapiens, UniProt Q13370); assay: Inhibition of human PDE3B
[9] = Volume of distribution in steady state in rat at 10 mg/kg; format: ADME, organism-based; details: in vivo, read-out: Vdss
Homo sapiens [10] = species on record: Homo sapiens; assay: Selectivity ratio of IC50 for human PDE2A to IC50 for human recombinant full length PDE10A expressed in sf9 cells
[11] = Half life in rat at 10 mg/kg, iv; format: ADME, organism-based; details: in vivo
[12] = molecular target: 3',5'-cyclic-AMP phosphodiesterase 4D (Homo sapiens, UniProt Q08499); assay: Inhibition of human PDE4D
[13] = Stability in human liver microsomes; format: ADME, Microsome
[14] = molecular target: cGMP-dependent 3',5'-cyclic phosphodiesterase (Homo sapiens, UniProt O00408); assay: Inhibition of human PDE2A
[15] = molecular target: Dual specificity calcium/calmodulin-dependent 3',5'-cyclic nucleotide phosphodiesterase 1B (Homo sapiens, UniProt Q01064); assay: Inhibition of human PDE1B
[16] = Cardiotoxicity in anesthetized guinea pig; format: toxicity, Cavia porcellus
Cytochrome P450 2C19 = Cytochrome P450 2C19 (Homo sapiens, UniProt P33261); assay: Inhibition of recombinant CYP2C19 (unknown origin); format: ADME
[17] = Clearance in rat at 10 mg/kg; format: ADME, organism-based; details: in vivo
Cytochrome P450 3A4 = Cytochrome P450 3A4 (Homo sapiens, UniProt P08684); assay: Inhibition of recombinant CYP3A4 (unknown origin); format: ADME
[18] = molecular target: cGMP-specific 3',5'-cyclic phosphodiesterase (Homo sapiens, UniProt O76074); assay: Inhibition of human PDE5A
Rattus norvegicus [19] = species on record: Rattus norvegicus; assay: Induction of insulin secretion in rat pancreatic islets at 0.1 to 3 uM in presence of 12 mM glucose; format: functional
[20] = molecular target: High affinity 3',5'-cyclic-AMP phosphodiesterase 7A (Homo sapiens, UniProt Q13946); assay: Inhibition of human PDE7A
Cytochrome P450 2D6 = Cytochrome P450 2D6 (Homo sapiens, UniProt P10635); assay: Inhibition of recombinant CYP2D6 (unknown origin); format: ADME
[21] = Stability in rat liver microsomes; format: ADME, Microsome
Homo sapiens [22] = species on record: Homo sapiens; assay: Selectivity ratio of IC50 for human PDE1B to IC50 for human recombinant full length PDE10A expressed in sf9 cells
Cytochrome P450 1A2 = molecular target: T1, Cytochrome P450 1A2 (Homo sapiens, UniProt P05177); assay: Inhibition of recombinant CYP1A2 (unknown origin); format: ADME
T1 sequence (P05177 whole entry): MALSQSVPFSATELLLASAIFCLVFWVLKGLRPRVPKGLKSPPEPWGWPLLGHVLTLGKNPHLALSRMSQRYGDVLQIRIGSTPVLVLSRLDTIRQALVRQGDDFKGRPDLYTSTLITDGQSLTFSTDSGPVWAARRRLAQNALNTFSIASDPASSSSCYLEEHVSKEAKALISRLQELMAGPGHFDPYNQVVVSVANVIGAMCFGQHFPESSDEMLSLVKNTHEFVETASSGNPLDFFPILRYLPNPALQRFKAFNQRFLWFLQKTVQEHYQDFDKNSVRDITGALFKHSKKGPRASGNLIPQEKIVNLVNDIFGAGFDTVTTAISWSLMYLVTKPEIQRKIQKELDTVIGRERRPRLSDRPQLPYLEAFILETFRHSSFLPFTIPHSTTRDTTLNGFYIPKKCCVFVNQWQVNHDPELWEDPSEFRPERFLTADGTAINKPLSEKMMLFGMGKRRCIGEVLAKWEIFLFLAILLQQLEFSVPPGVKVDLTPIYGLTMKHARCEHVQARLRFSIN

Homo sapiens [23] = species on record: Homo sapiens; assay: Selectivity ratio of IC50 for human PDE5A to IC50 for human recombinant full length PDE10A expressed in sf9 cells
Pancreatic islet [24] = assay: Induction of insulin secretion in human pancreatic islets at 1 uM in presence of glucose; format: functional, cell-based
[25] = molecular target: High affinity cGMP-specific 3',5'-cyclic phosphodiesterase 9A (Homo sapiens, UniProt O76083); assay: Inhibition of human PDE9A
Rattus norvegicus [26] = assay: Antidiabetic activity in fasted Sprague-Dawley rat assessed as reduction in blood glucose level at 3 to 30 mg/kg, po administered 3 hrs prior to glucose challenge measured up to 2 hrs by OGTT; format: functional, organism-based
Mus musculus = assay: Antidiabetic activity in ob/ob mouse assessed as reduction in blood glucose level at 5 to 20 mg/kg, po administered 3 hrs prior to glucose challenge measured up to 2 hrs by OGTT; format: functional, organism-based
[27] = Stability in mouse liver microsomes; format: ADME, Microsome
[28] = molecular target: 3',5'-cyclic phosphodiesterase; assay: Inhibition of human PDE; format: protein assay
Homo sapiens [29] = species on record: Homo sapiens; assay: Selectivity ratio of IC50 for human PDE3B to IC50 for human recombinant full length PDE10A expressed in sf9 cells
Rattus norvegicus [30] = species on record: Rattus norvegicus; assay: Induction of insulin secretion in rat pancreatic islets at 0.1 to 3 uM in presence of 3 mM glucose; format: functional
Homo sapiens [31] = species on record: Homo sapiens; assay: Selectivity ratio of IC50 for human PDE7A to IC50 for human recombinant full length PDE10A expressed in sf9 cells
Homo sapiens [32] = species on record: Homo sapiens; assay: Selectivity ratio of IC50 for human PDE9A to IC50 for human recombinant full length PDE10A expressed in sf9 cells
Homo sapiens [33] = species on record: Homo sapiens; assay: Selectivity ratio of IC50 for human PDE4D to IC50 for human recombinant full length PDE10A expressed in sf9 cells
[34] = molecular target: Voltage-gated inwardly rectifying potassium channel KCNH2 (Homo sapiens, UniProt Q12809); assay: Inhibition of human ERG
Cytochrome P450 2C9 = Cytochrome P450 2C9 (Homo sapiens, UniProt P11712); assay: Inhibition of recombinant CYP2C9 (unknown origin); format: ADME
[35] = Stability in dog liver microsomes; format: ADME, Canis lupus familiaris, Microsome
Pancreatic islet [36] = assay: Induction of insulin secretion in human pancreatic islets at 30 mM in presence of glucose; format: functional, cell-based

Sequence of cAMP and cAMP-inhibited cGMP 3',5'-cyclic phosphodiesterase 10A (Q9Y233 whole entry): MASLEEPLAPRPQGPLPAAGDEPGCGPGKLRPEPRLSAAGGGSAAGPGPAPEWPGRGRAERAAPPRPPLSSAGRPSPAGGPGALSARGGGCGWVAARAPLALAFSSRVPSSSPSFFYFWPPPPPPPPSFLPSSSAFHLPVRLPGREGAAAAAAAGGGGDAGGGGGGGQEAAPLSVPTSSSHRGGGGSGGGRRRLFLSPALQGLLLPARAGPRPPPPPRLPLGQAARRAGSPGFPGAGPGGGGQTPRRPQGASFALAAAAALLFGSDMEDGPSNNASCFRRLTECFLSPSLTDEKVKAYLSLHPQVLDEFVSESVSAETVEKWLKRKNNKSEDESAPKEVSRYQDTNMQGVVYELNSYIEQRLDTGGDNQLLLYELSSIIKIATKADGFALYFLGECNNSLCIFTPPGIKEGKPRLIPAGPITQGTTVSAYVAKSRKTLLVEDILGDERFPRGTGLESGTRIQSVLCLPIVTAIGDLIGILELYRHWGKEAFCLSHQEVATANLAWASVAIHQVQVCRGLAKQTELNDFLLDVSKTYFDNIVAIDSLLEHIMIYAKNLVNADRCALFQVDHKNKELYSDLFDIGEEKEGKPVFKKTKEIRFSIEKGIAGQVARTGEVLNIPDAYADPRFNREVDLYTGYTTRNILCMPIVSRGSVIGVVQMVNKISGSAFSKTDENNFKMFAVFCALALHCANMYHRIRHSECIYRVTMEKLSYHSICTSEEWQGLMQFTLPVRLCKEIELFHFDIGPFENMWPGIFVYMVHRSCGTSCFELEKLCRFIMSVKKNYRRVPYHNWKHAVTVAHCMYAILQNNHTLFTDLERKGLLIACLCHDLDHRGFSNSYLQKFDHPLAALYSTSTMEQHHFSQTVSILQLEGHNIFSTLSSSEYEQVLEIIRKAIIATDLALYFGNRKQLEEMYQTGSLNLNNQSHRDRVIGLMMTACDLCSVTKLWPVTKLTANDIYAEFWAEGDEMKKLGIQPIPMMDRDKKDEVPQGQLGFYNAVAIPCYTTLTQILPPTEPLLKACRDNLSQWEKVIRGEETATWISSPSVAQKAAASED
Sequence of Cytochrome P450 3A4 (P08684 whole entry): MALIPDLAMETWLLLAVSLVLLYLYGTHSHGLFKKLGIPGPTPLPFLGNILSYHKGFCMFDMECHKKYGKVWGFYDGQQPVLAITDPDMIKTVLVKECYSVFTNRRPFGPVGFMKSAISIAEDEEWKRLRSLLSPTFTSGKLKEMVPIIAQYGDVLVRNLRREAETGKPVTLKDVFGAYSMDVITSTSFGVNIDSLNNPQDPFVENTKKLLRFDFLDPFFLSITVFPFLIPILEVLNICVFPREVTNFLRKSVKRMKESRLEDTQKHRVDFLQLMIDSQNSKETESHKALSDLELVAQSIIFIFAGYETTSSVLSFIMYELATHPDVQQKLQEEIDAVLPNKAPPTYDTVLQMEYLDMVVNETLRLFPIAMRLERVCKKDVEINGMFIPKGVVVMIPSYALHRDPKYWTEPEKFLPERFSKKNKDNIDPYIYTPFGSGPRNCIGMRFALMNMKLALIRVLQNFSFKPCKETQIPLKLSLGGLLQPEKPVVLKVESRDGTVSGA
Sequence of Cytochrome P450 2C9 (P11712 whole entry): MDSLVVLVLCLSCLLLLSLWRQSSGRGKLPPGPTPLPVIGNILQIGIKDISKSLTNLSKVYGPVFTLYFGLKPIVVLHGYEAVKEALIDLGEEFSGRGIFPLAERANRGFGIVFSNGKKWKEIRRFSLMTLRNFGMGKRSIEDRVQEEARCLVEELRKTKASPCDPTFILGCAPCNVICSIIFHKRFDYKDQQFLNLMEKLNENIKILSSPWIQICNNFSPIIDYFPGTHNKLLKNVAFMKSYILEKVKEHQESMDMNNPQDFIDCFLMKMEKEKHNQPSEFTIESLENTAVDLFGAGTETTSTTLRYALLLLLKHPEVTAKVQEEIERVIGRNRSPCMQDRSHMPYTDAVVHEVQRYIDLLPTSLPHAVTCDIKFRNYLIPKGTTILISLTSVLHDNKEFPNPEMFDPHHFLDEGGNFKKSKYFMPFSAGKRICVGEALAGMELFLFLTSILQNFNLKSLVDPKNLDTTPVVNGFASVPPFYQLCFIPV
Sequence of Cytochrome P450 2C19 (P33261 whole entry): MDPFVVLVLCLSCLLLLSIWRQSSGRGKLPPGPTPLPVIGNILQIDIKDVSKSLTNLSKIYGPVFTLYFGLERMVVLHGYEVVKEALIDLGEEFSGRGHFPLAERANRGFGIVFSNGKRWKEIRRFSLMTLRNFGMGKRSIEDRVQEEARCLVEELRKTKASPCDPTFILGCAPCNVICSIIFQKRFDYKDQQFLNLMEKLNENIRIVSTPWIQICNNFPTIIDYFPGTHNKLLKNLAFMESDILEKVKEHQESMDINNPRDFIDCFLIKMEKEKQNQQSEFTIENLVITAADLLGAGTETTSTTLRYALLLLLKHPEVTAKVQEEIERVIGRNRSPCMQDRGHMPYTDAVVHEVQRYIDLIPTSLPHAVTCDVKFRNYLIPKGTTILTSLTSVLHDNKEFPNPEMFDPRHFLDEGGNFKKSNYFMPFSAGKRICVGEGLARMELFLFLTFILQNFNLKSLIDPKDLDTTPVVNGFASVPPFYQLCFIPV
Sequence of High affinity 3',5'-cyclic-AMP phosphodiesterase 7A (Q13946 whole entry): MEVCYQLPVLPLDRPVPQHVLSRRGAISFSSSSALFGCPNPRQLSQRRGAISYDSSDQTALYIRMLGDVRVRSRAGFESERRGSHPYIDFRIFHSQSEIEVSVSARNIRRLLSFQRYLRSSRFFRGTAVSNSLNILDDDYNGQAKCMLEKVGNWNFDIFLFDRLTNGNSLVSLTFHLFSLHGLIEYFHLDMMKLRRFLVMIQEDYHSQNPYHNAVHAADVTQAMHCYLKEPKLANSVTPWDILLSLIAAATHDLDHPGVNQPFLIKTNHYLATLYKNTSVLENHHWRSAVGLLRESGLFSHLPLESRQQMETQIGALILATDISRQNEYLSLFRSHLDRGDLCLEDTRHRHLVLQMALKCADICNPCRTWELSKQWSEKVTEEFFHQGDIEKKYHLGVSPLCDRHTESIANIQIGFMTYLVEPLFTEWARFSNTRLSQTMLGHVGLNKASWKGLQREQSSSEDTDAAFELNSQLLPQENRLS
Sequence of Cytochrome P450 2D6 (P10635 whole entry): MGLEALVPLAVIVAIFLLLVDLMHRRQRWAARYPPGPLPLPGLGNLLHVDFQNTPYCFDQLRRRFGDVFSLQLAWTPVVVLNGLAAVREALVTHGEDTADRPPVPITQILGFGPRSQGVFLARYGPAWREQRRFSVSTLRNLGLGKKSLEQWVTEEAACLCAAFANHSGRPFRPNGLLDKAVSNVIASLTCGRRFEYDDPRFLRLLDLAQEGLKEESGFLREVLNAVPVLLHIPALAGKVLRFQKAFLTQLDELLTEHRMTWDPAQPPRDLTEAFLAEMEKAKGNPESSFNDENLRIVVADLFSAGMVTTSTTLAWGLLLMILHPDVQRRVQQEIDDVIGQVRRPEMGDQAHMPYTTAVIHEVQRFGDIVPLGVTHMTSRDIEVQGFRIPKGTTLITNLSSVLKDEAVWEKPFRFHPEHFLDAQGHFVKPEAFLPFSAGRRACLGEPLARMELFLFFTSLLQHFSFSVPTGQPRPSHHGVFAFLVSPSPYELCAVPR
Sequence of cGMP-inhibited 3',5'-cyclic phosphodiesterase 3B (Q13370 whole entry): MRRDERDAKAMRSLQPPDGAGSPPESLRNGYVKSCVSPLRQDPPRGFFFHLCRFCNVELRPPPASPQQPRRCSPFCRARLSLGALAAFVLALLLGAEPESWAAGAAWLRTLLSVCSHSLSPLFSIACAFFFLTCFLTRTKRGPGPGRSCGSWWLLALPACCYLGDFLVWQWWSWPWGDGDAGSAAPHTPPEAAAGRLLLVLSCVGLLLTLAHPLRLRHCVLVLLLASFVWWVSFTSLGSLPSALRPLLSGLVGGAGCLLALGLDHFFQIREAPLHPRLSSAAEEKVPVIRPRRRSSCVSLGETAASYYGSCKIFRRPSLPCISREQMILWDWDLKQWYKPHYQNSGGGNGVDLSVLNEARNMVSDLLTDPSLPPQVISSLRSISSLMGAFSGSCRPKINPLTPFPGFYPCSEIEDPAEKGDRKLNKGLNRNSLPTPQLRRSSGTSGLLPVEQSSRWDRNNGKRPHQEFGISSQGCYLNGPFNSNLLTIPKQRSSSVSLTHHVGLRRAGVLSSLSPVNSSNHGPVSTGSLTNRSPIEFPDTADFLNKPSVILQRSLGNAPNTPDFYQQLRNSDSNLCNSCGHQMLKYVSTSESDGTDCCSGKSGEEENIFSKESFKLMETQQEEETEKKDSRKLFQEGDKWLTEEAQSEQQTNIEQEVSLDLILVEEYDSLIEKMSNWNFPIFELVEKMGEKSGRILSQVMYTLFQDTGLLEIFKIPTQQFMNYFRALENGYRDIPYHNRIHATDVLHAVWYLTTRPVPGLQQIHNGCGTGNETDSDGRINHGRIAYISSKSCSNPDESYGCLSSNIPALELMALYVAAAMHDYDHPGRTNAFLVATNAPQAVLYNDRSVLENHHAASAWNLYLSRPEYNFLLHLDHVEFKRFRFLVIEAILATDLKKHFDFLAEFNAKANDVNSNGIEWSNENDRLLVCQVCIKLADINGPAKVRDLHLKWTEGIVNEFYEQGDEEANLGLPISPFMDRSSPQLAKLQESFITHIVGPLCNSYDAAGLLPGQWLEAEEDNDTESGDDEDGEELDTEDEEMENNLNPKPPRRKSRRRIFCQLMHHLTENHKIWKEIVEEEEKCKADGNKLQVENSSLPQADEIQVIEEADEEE

For `N=C(N)NCCC[C@H](N)C(=O)O`, the Activity (Pancreatic islet [1]) was “Active”.

Compound `O=C(O)c1ccc(-c2c([C@H]3C[C@H](c4ccc5ccccc5n4)C3)nc3c(N4CCOCC4)ccnn23)cc1` has an IC50 [2] of 0.6 nM.

`O=c1[nH]c(-c2ccc(-c3c(/C=C/c4ccc5ccccc5n4)nc4c(N5CCOCC5)ccnn34)cc2)no1` gave an IC50 [2] of 3.3 nM.

`CS(=O)(=O)NC(=O)c1ccc(-c2c(C#Cc3ccc4ccccc4n3)nc3c(N4CCOCC4)ccnn23)cn1` gave a Kp at 2 h [3] of 0.01 and an IC50 [2] of 2.1 nM.

Work on `O=C(O)c1ccc(-c2c(CCc3ccc4ccccc4n3)nc3c(N4CCOCC4)ccnn23)cc1` yielded an IC50 [2] of 1.2 nM.

Work on `c1ccc2nc(Cc3nc4c(N5CCOCC5)ccnn4c3-c3ccc(N4CCNCC4)nc3)ccc2c1` yielded a Kp at 2 h [3] of 0.45 and an IC50 [2] of 123 nM.

In the case of `OC[C@H]1OC(O)[C@H](O)[C@@H](O)[C@@H]1O` (stereo partly specified), the Activity (Pancreatic islet [4]) is reported as “Active”.

Work on `Oc1ncn(-c2ccc(-c3c(/C=C/c4ccc5ccccc5n4)nc4c(N5CCOCC5)ccnn34)cc2)n1` yielded an IC50 [2] of 7.4 nM.

Work on `NS(=O)(=O)N1CCN(c2c(CSc3ccc4ccccc4n3)nc3c(N4CCOCC4)ccnn23)CC1` yielded a Kp at 2 h [3] of 0.31 and an IC50 [2] of 13.8 nM.

For `O=C(O)c1ccc(-c2c(/C=C/c3ccc4ccccc4n3)nc3c(N4CCOCC4)ccnn23)cc1`, the Cmax [5] was 2990 ng/mL, the Stability [6] was “Stable” and the bioavailability [7] was 44%. The IC50 [8] was 6600 nM, the Vd [9] was 0.47 L/kg and the Ratio IC50 (Homo sapiens [10]) was 200. The half-life [11] was 6 to 6.1 h, the IC50 [12] was 4000 nM and the Stability [13] was “Stable”. The IC50 [14] was 5900 nM, the IC50 [15] was 6600 nM and the Activity [16] was “Non-Toxic”. The IC50 (Cytochrome P450 2C19) was over 10000 nM, the clearance [17] was 3.3 mL/min/kg and the IC50 (Cytochrome P450 3A4) was over 10000 nM. For the same compound, the IC50 [18] was 5400 nM, the Activity (Rattus norvegicus [19]) was “inactive” and the IC50 [20] was 4200 nM. The IC50 (Cytochrome P450 2D6) was over 10000 nM, the Stability [21] was “Stable” and the IC50 [2] was 1.5 to 2 nM. The Ratio IC50 (Homo sapiens [22]) was 200, the IC50 (Cytochrome P450 1A2) was over 10000 nM and the Ratio IC50 (Homo sapiens [23]) was 200. The Activity (Pancreatic islet [24]) was “Active”, the IC50 [25] was over 10000 nM and the Activity (Rattus norvegicus [26]) was “inactive”. For the same compound, the Activity (Mus musculus) was “inactive”, the Stability [27] was “Stable” and the IC50 [28] was 3000 nM. The Ratio IC50 (Homo sapiens [29]) was 200, the Activity (Rattus norvegicus [30]) was “inactive” and the Ratio IC50 (Homo sapiens [31]) was 200. The Ratio IC50 (Homo sapiens [32]) was 200, the Ratio IC50 (Homo sapiens [33]) was 200 and the “inhibition (INH)” value [34] was “Not Active”. For the same compound, the IC50 (Cytochrome P450 2C9) was over 10000 nM and the Stability [35] was “Stable”.

For `[Cl-].[K+]`, the Activity (Pancreatic islet [36]) was “Active”.

In the case of `COc1ccc(Cl)cc1C(=O)NCCc1ccc(S(=O)(=O)NC(=O)NC2CCCCC2)cc1`, the Activity (Pancreatic islet [24]) is reported as “Active”.

Work on `c1ccc2nc(SCc3nc4c(N5CCOCC5)ccnn4c3-c3ccc(N4CCNCC4)nc3)ccc2c1` yielded a Kp at 2 h [3] of 0.82.

With `Oc1nc(O)c(-c2ccc(-c3c(/C=C/c4ccc5ccccc5n4)nc4c(N5CCOCC5)ccnn34)cc2)o1` the Kp at 2 h [3] was 0.01 and the IC50 [2] was 8.5 nM.

Compound `O=C(O)CCc1ccc(-c2c([C@H]3C[C@H](c4ccc5ccccc5n4)C3)nc3c(N4CCOCC4)ccnn23)cc1` has an IC50 [2] of 2.4 nM.

In the case of `CC(=O)NS(=O)(=O)c1ccc(-c2c(/C=C/c3ccc4ccccc4n3)nc3c(N4CCOCC4)ccnn23)cc1`, the IC50 [2] is reported as 2.2 nM.

`O=C(O)C1CCN(c2ccc(-c3c([C@H]4C[C@H](c5ccc6ccccc6n5)C4)nc4c(N5CCOCC5)ccnn34)cc2)CC1` gave a Kp at 2 h [3] of 0.02 and an IC50 [2] of 3.2 nM.

Compound `O=C(O)C1CCN(c2ccc(-c3c(/C=C/c4ccc5ccccc5n4)nc4c(N5CCOCC5)ccnn34)cc2)CC1` has a Kp at 2 h [3] of 0.02 and an IC50 [2] of 4.4 nM.

— ChEMBL document CHEMBL4477250, “Discovery of novel potent imidazo[1,2-b]pyridazine PDE10a inhibitors” (Bioorg Med Chem Lett, 2016)
